≈ marks a conversion by molar mass, not a printed value. Where “and” joins values, the source holds several entries; their conditions need not be identical. Equal entries are not always repeated.
Assays:
[1] = In vivo pharmacokinetic (PK) studies in rats; set-up: species or system Sprague-Dawley (SD) rats; conditions: male, Sprague-Dawley, rat, plasma
E. coli [ATCC25922] = test: Urinary Tract Infection Rat Model (kidneys, bladder); conditions: for MEAN ± SD (Log10 CFU/g kidneys) / MEAN ± SD (Log10 CFU/ml Bladder) / Mean Log10CFU/g kidney reduction (wrt 4 h PI control: 4.53 Log10CFU/g kidneys) / Mean Log10 CFU/ml Bladder reduction (wrt 4 h PI control: 5.72 CFU/ml Bladder) / Log10 CFU/g (Left Kidney) / Log10 CFU/g (Right Kidney) / Log10 CFU/ml Bladder: i.v., 1 h infusion; for Log10 CFU/g (Left Kidney) / Log10 CFU/g (Right Kidney) / Log10 CFU/ml Bladder: individual animals, 24 h post infection
E. coli clinical strains = test: Susceptibility (MIC50 and MIC90 determination) studies, clinical strains; assay type: cell-based; conditions: CLSI
[2] = Stability of IV formulation at room temperature; assay type: physicochemical; conditions: 10% L-ascorbic acid formulation
[3] = test system: A. baumanni clinical strains; test: Susceptibility (MIC50 and MIC90 determination) studies, clinical strains; assay type: cell-based; conditions: CLSI
[4] = test system: P. aeruginosa [ATCC27853]; test: Neutropenic Lung Infection Model in Rat; assay type: in vivo; conditions: for MEAN ± SD (Log10 CFU/g Lung) / Mean Log 10 CFU/g lung reduction (wrt 4 h PI control: 6.52 Log10CFU/g lung) / Log10 CFU/g Lung: i.v., 1 h infusion; for Log10 CFU/g Lung: individual animals, 24 h post infection
Experimental: Animals were placed into an induction chamber and anaesthesia was induced by exposing the animals to 3-5% Isoflurane in an oxygen flow set at approximately (˜) 1 liter per minute (LPM). […] A gentle mixing of inoculum between two animals was followed for uniform distribution.
Meropenem was formulated in saline.
Entire Lung was aseptically isolated, weighed and placed into 1 mL of sterile CSDB broth, and homogenized (Omni Tip (220 V hand held)). Serial ten-fold dilutions of the lungs homogenates were prepared in sterile CSD broth and 0.05 mL of four dilutions for each tissue was plated onto CSDA agar plates. Bacterial colonies were enumerated following overnight incubation at 37° C. Bacterial densities were estimated as Log10 CFU/g lung. The Mean±SD Log10 CFU/g lung was estimated in each group.

[5] = Escherichia coli, E. coli clinical strains

Cn1c(=O)ccc2ccc(F)c(OCCNC[C@H]3CN(c4cnc5c(n4)NC(=O)CO5)C(=O)O3)c21 [Compound 2, (S)-6-(5-(((2-((7-fluoro-1-methyl-2-oxo-1,2-dihydroquinolin-8-yl)oxy)ethyl)amino)methyl)-2-oxooxazolidin-3-yl)-2H-pyrazino[2,3-b][1,4]oxazin-3(4H)-one]
AUC(0-inf) ([1]; 150 mg/kg, IV): 172 ± 10.7 µg·h/mL
AUC(0-t) ([1]; 150 mg/kg, IV): 172 ± 10.8 µg·h/mL
Tmax ([1]; 150 mg/kg, IV): 2 h
half-life ([1]; 150 mg/kg, IV): 4.24 ± 0.67 h
clearance ([1]; 150 mg/kg, IV, read-out: CLp (converted)): 14.5 mL/min/kg
AUC(0-inf) ([1]; 300 mg/kg, PO): 27.2 ± 17.5 µg·h/mL
Cmax ([1]; 300 mg/kg, PO): 11100 ± 3100 ng/mL
Tmax ([1]; 300 mg/kg, PO): 1 h
half-life ([1]; 300 mg/kg, PO): 2.2 h
effect when compared to the 4 h PI control (in words) (E. coli [ATCC25922]; 3 mg/kg): bacteriostatic
MEAN ± SD (Log10 CFU/g kidneys) (E. coli [ATCC25922]; 3 mg/kg): 5.13 ± 0.28 Log10 CFU/g kidneys
MEAN ± SD (Log10 CFU/ml Bladder) (E. coli [ATCC25922]; 3 mg/kg): 5.89 ± 0.4 Log10 CFU/ml Bladder
Mean Log10CFU/g kidney reduction (wrt 4 h PI control: 4.53 Log10CFU/g kidneys) (E. coli [ATCC25922]; 3 mg/kg): −0.60 Log10CFU/g kidney
Mean Log10 CFU/ml Bladder reduction (wrt 4 h PI control: 5.72 CFU/ml Bladder) (E. coli [ATCC25922]; 3 mg/kg): −0.17 Log10 CFU/ml Bladder
Log10 CFU/g (Left Kidney) (E. coli [ATCC25922]; 3 mg/kg): 5.39 Log10 CFU/g and 5.17 Log10 CFU/g and 5.24 Log10 CFU/g
Log10 CFU/g (Right Kidney) (E. coli [ATCC25922]; 3 mg/kg): 4.68 Log10 CFU/g and 4.90 Log10 CFU/g and 5.39 Log10 CFU/g
Log10 CFU/ml Bladder (E. coli [ATCC25922]; 3 mg/kg): 5.43 Log10 CFU/ml Bladder and 6.16 Log10 CFU/ml Bladder and 6.08 Log10 CFU/ml Bladder
MEAN ± SD (Log10 CFU/g kidneys) (E. coli [ATCC25922]; 10 mg/kg): 3.95 ± 0.33 Log10 CFU/g kidneys
MEAN ± SD (Log10 CFU/ml Bladder) (E. coli [ATCC25922]; 10 mg/kg): 4.8 ± 0.2 Log10 CFU/ml Bladder
Mean Log10CFU/g kidney reduction (wrt 4 h PI control: 4.53 Log10CFU/g kidneys) (E. coli [ATCC25922]; 10 mg/kg): 0.58 Log10CFU/g kidney
Mean Log10 CFU/ml Bladder reduction (wrt 4 h PI control: 5.72 CFU/ml Bladder) (E. coli [ATCC25922]; 10 mg/kg): 0.92 Log10 CFU/ml Bladder
Log10 CFU/g (Left Kidney) (E. coli [ATCC25922]; 10 mg/kg): 4.12 Log10 CFU/g and 3.78 Log10 CFU/g and 4.46 Log10 CFU/g
Log10 CFU/g (Right Kidney) (E. coli [ATCC25922]; 10 mg/kg): 4.11 Log10 CFU/g and 3.65 Log10 CFU/g and 3.61 Log10 CFU/g
Log10 CFU/ml Bladder (E. coli [ATCC25922]; 10 mg/kg): 5.02 Log10 CFU/ml Bladder and 4.61 Log10 CFU/ml Bladder and 4.76 Log10 CFU/ml Bladder
MEAN ± SD (Log10 CFU/g kidneys) (E. coli [ATCC25922]; 30 mg/kg): 2.91 ± 0.31 Log10 CFU/g kidneys
MEAN ± SD (Log10 CFU/ml Bladder) (E. coli [ATCC25922]; 30 mg/kg): 3.89 ± 0.3 Log10 CFU/ml Bladder
Mean Log10CFU/g kidney reduction (wrt 4 h PI control: 4.53 Log10CFU/g kidneys) (E. coli [ATCC25922]; 30 mg/kg): 1.62 Log10CFU/g kidney
Mean Log10 CFU/ml Bladder reduction (wrt 4 h PI control: 5.72 CFU/ml Bladder) (E. coli [ATCC25922]; 30 mg/kg): 1.83 Log10 CFU/ml Bladder
Log10 CFU/g (Left Kidney) (E. coli [ATCC25922]; 30 mg/kg): 3.22 Log10 CFU/g and 3.36 Log10 CFU/g and 2.80 Log10 CFU/g
Log10 CFU/g (Right Kidney) (E. coli [ATCC25922]; 30 mg/kg): 2.77 Log10 CFU/g and 2.75 Log10 CFU/g and 2.55 Log10 CFU/g
Log10 CFU/ml Bladder (E. coli [ATCC25922]; 30 mg/kg): 4.19 Log10 CFU/ml Bladder and 3.90 Log10 CFU/ml Bladder and 3.58 Log10 CFU/ml Bladder
effect with respect to 4 h PI control (in words) (E. coli [ATCC25922]; 10 and 30 mg/kg): significant dose dependent bactericidal effect
Minimum (MIC) (E. coli clinical strains; E. coli clinical strains, MIC50/MIC90 in μg/ml): 0.03 µg/mL
MIC ATCC25922 (E. coli clinical strains; E. coli reference strain ATCC25922, MIC50/MIC90 in μg/ml): 0.03 µg/mL (≈ 0.0619 µM)
MIC50 (E. coli clinical strains; [5]): 0.25 µg/mL (≈ 0.516 µM)
MIC90 (E. coli clinical strains; [5]): 0.25 µg/mL (≈ 0.516 µM)
IV formulation stable at room temperature [2]: more than 24 hours
MIC50 ([3]; Aba clinical strains): 0.06 µg/mL (≈ 0.124 µM)
MIC90 ([3]; Aba clinical strains): 0.25 µg/mL (≈ 0.516 µM)
Minimum (MIC) ([3]; Aba clinical strains, MIC50/MIC90 in μg/ml, in µg/mL): 0.03
MIC ATCC19606 ([3]; Aba reference strain ATCC19606, MIC50/MIC90 in μg/ml): 0.06 µg/mL (≈ 0.124 µM)
MEAN ± SD (Log10 CFU/g Lung) ([4]; 3 mg/kg): 8.09 ± 0.14 Log10 CFU/g Lung
Mean Log 10 CFU/g lung reduction (wrt 4 h PI control: 6.52 Log10CFU/g lung) ([4]; 3 mg/kg): −1.57 Log 10 CFU/g lung
Log10 CFU/g Lung ([4]; 3 mg/kg): 7.99 Log10 CFU/g Lung and 8.02 Log10 CFU/g Lung and 8.26 Log10 CFU/g Lung
MEAN ± SD (Log10 CFU/g Lung) ([4]; 10 mg/kg): 6.93 ± 0.44 Log10 CFU/g Lung
Mean Log 10 CFU/g lung reduction (wrt 4 h PI control: 6.52 Log10CFU/g lung) ([4]; 10 mg/kg): −0.41 Log 10 CFU/g lung
Log10 CFU/g Lung ([4]; 10 mg/kg): 7.34 Log10 CFU/g Lung and 6.98 Log10 CFU/g Lung and 6.46 Log10 CFU/g Lung
efficacy with respect to early infection control (in words) ([4]; 30 mg/kg and 100 mg/kg doses): significant efficacy
MEAN ± SD (Log10 CFU/g Lung) ([4]; 30 mg/kg): 5.35 ± 0.25 Log10 CFU/g Lung
Mean Log 10 CFU/g lung reduction (wrt 4 h PI control: 6.52 Log10CFU/g lung) ([4]; 30 mg/kg): 1.17 Log 10 CFU/g lung
Log10 CFU/g Lung ([4]; 30 mg/kg): 5.30 Log10 CFU/g Lung and 5.63 Log10 CFU/g Lung and 5.14 Log10 CFU/g Lung
MEAN ± SD (Log10 CFU/g Lung) ([4]; 100 mg/kg): 3.1 ± 0.12 Log10 CFU/g Lung
Mean Log 10 CFU/g lung reduction (wrt 4 h PI control: 6.52 Log10CFU/g lung) ([4]; 100 mg/kg): 3.42 Log 10 CFU/g lung
Log10 CFU/g Lung ([4]; 100 mg/kg): 3.12 Log10 CFU/g Lung and 3.20 Log10 CFU/g Lung and 2.98 Log10 CFU/g Lung

Reference: patent US11401277B2, “Anti-bacterial heterocyclic compounds and their synthesis” (Bugworks Research, Inc., priority 2017, dated 2022)
